Laboratory results reported in US11173145B2, “Compounds useful as inhibitors of indoleamine 2,3-dioxygenase and/or tryptophan dioxygenase” (Board of Regents, The University of Texas System, priority 2017, dated 2021).

Molecular target: T1, IDO1 (Homo sapiens, UniProt P14902)
T1 construct: endogenous in cells; host or cells: HeLa cells (ATCC), IFNgamma-induced
Experiment: IDO1 cell-based assay (HeLa cells, IFNgamma-induced, N-formylkynurenine/L-tryptophan by RFMS)
Conditions: 10 ng/mL IFNgamma, 24 hours
Experimental: HeLa cells were obtained from the American Type Culture Collection (ATCC) and maintained in DMEM media containing 10% FBS. Cells (7,000/well) were seeded onto a 384 well plate in 50 μL of media and incubated at 37° C., 5% CO2 overnight. Cell media was aspirated, fresh media containing 10 ng/mL IFNgamma was added, and cells were incubated in absence or presence of various concentrations of test compound (final 0.5% DMSO) for 24 hours. Aliquots of the cell conditioned media were removed from the cell plate, and mixed with an equal volume of 200 mM ZnSO4 to precipitate media containing proteins. Two volumes of acetonitrile were added, mixed, and samples were then centrifuged at 2250G for 20 minutes at 4° C. Aliquots of the supernatant were diluted 1:10 in 0.1% formic acid containing 3 μM of deuterated Tryptophan as an internal standard.
Samples were analyzed via RFMS to quantify N-Formyl Kynurenine (AUC) and L-tryptophan (AUC). A C18 cartridge was used with mobile phases of 0.1% Formic Acid and 80% ACN/0.1% Formic Acid under isocratic conditions. Dose-response curves were analyzed using IC50 regression curve fitting (GeneData Screener). […] Cell viability was also assessed using the Cell Titer Glo Kit (Promega) following manufacturer recommendation.

T1 sequence (P14902 whole entry): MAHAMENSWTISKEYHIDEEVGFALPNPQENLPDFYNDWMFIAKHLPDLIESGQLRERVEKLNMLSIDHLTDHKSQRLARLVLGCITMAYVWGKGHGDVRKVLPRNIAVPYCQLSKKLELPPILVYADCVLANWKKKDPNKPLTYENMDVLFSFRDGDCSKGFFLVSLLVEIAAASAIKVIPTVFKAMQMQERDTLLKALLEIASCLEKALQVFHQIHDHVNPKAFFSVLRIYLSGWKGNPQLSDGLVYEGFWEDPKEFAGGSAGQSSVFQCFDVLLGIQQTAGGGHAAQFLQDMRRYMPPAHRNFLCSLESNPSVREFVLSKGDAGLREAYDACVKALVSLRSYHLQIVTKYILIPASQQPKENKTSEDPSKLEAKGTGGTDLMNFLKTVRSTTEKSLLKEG

Work on `CCC(NC(=O)c1ccc(Cl)cc1)[C@H]1[C@@H]2C[C@@H](Oc3cccc4cccnc34)C[C@@H]21` (stereo partly drawn) [Compound 43, 4-chloro-N-(1-((1R,3s,5S,6r)-3-(quinolin-8-yloxy)bicyclo[3.1.0]hexan-6-yl)propyl)benzamide] yielded an IC50 of less than 200 nM.

`CCC(NC(=O)c1ccc(Cl)cc1)[C@H]1[C@@H]2C[C@@H](Oc3c(F)cccc3F)C[C@@H]21` (stereo partly drawn) [Compound 44, 4-chloro-N-(1-((1R,3s,5S,6r)-3-(2,6-difluorophenoxy)bicyclo[3.1.0]hexan-6-yl)propyl)benzamide] showed an IC50 of less than 200 nM.

`CCC(NC(=O)c1ccc(Cl)cc1)[C@H]1[C@@H]2C[C@@H](Oc3ccccc3CC(N)=O)C[C@@H]21` (stereo partly drawn) [Compound 45, N-(1-((1R,3s,5S,6r)-3-(2-(2-amino-2-oxoethyl)phenoxy)bicyclo[3.1.0]hexan-6-yl)propyl)-4-chlorobenzamide] showed an IC50 of less than 200 nM.

Compound `CCC(NC(=O)c1ccc(Cl)cc1)C1[C@H]2CC(Oc3cnnc4ccccc34)C[C@@H]12` (stereo partly drawn) [Compound 46, 4-chloro-N-(1-((1R,3s,5S,6r)-3-(cinnolin-4-yloxy)bicyclo[3.1.0]hexan-6-yl)propyl)benzamide] has an IC50 of less than 200 nM.

With `CCC(NC(=O)c1ccc(Cl)cc1)[C@H]1[C@@H]2C[C@@H](n3ncc(=O)c4ccccc43)C[C@@H]21` (stereo partly drawn) [Compound 47, 4-chloro-N-(1-((1R,3s,5S,6r)-3-(4-oxocinnolin-1(4H)-yl)bicyclo[3.1.0]hexan-6-yl)propyl)benzamide] the IC50 was less than 200 nM.

For `CCC(NC(=O)c1ccc(Cl)cc1)[C@H]1[C@@H]2C[C@@H](Oc3ccccc3CN(C)C)C[C@@H]21` (stereo partly drawn) [Compound 48, 4-chloro-N-(1-((1R,3s,5S,6r)-3-(2-((dimethylamino)methyl)phenoxy)bicyclo[3.1.0]hexan-6-yl)propyl)benzamide], the IC50 was 2000 to 5000 nM.

Work on `CCC(NC(=O)c1ccc(Cl)cc1)[C@H]1[C@@H]2C[C@@H](Oc3cnc4ccccc4c3)C[C@@H]21` (stereo partly drawn) [Compound 49, 4-chloro-N-(1-((1R,3s,5S,6r)-3-(quinolin-3-yloxy)bicyclo[3.1.0]hexan-6-yl)propyl)benzamide] yielded an IC50 of less than 200 nM.

With `CCC(NC(=O)c1ccc(Cl)cc1)[C@H]1[C@@H]2C[C@@H](Oc3cc(=O)n(C)c4ccccc34)C[C@@H]21` (stereo partly drawn) [Compound 50, 4-chloro-N-(1-((1R,3s,5S,6r)-3-((1-methyl-2-oxo-1,2-dihydroquinolin-4-yl)oxy)bicyclo[3.1.0]hexan-6-yl)propyl)benzamide] the IC50 was less than 200 nM.

`CCC(NC(=O)c1ccc(Cl)cc1)[C@H]1[C@@H]2C[C@@H](n3ncc4cnccc43)C[C@@H]21` (stereo partly drawn) [Compound 51, N-(1-((1R,3s,5S,6r)-3-(1H-pyrazolo[4,3-c]pyridin-1-yl)bicyclo[3.1.0]hexan-6-yl)propyl)-4-chlorobenzamide] was tested, and the IC50 was less than 200 nM.

Work on `CCC(NC(=O)c1ccc(Cl)cc1)[C@H]1[C@@H]2C[C@@H](Oc3nc(C)ncc3F)C[C@@H]21` (stereo partly drawn) [Compound 52, 4-chloro-N-(1-((1R,3s,5S,6r)-3-((5-fluoro-2-methylpyrimidin-4-yl)oxy)bicyclo[3.1.0]hexan-6-yl)propyl)benzamide] yielded an IC50 of less than 200 nM.

`CCC(NC(=O)c1ccc(Cl)cc1)[C@H]1[C@@H]2C[C@@H](n3cnc4cc(Cl)ccc4c3=O)C[C@@H]21` (stereo partly drawn) [Compound 53, 4-chloro-N-(1-((1R,3s,5S,6r)-3-(7-chloro-4-oxoquinazolin-3(4H)-yl)bicyclo[3.1.0]hexan-6-yl)propyl)benzamide] showed an IC50 of less than 200 nM.

In the case of `CCC(NC(=O)c1ccc(Cl)cc1)[C@H]1[C@@H]2C[C@@H](Oc3ncncc3F)C[C@@H]21` (stereo partly drawn) [Compound 54, 4-chloro-N-(1-((1R,3s,5S,6r)-3-((5-fluoropyrimidin-4-yl)oxy)bicyclo[3.1.0]hexan-6-yl)propyl)benzamide], the IC50 is reported as less than 200 nM.

With `CCC(NC(=O)c1ccc(Cl)cc1)[C@H]1[C@@H]2C[C@@H](Oc3ccc4c(Cl)ccnc4c3)C[C@@H]21` (stereo partly drawn) [Compound 57, 4-chloro-N-(1-((1R,3s,5S,6r)-3-((4-chloroquinolin-7-yl)oxy)bicyclo[3.1.0]hexan-6-yl)propyl)benzamide] the IC50 was 200 to 2000 nM.
